{"source": "patent US11969511B2", "about": "“Methods and compositions for antimicrobial treatment” (UNM Rainforest Innovations, priority 2015, dated 2024)", "key": {"P. aeruginosa biofilms": {"test_system": "P. aeruginosa biofilms", "assay": "Minimum inhibitory concentration, biofilm phase (XTT)", "format": "cell-based, Pseudomonas aeruginosa PAO1", "details": "24 h", "quoted_text": "Biofilm phase. P. aeruginosa biofilms were developed in sterile 96 well plates (BD biosciences, USA) as described above. Biofilms were washed twice with PBS and ciprofloxacin was administered in a concentration gradient (two fold). The plates were incubated for 24 h at 37° C. and 80 rpm. At the end of incubation period, XTT reduction assay was performed to quantify the viability of biofilms. […] The assay was performed quadruplicates at three times."}, "P. aeruginosa": {"test_system": "P. aeruginosa", "assay": "Minimum inhibitory concentration of tobramycin (dilution series, plating)", "format": "cell-based", "details": "Pseudomonas aeruginosa", "experimental": "Determination of minimum inhibitory concentration of tobramycin. […] Afterwards, tobramycin was serially diluted into 1 mL of DI H2O and added to the 1 mL aliquots of overnight bacterial culture to the final concentrations of tobramycin ranging from 25 to 250 μg/mL, with 25 μg/mL increments. For the control, 1 mL of sterile DI H2O was added to the aliquot of the culture. The cultures were then grown overnight on a rotary shaker at 37° C. and 150 rpm. The next day, 50 μL aliquots of the overnight cultures were diluted 1:2 with TSB, plated on the TS nutrient agar plates, and grown for 24 hours at 37° C. The next-day plates were checked for the presence of bacterial colonies. […] These findings introduce a starting point for inhibition of established biofilms. This is the MIC for tobramycin alone, without attachment to NPs."}, "P. aeruginosa biofilm": {"test_system": "P. aeruginosa biofilm", "assay": "Biofilm-inhibition through mucin and alginate barriers (in vitro CF biofilm model, disks)", "format": "cell-based, Pseudomonas aeruginosa", "parameters": "key to Sensitivity, Mucin barrier / Sensitivity, Alginate barrier / Sensitivity, Both barriers: S for sensitive; I for intermediate; R for resistant", "details": "tobramycin 2 mg/mL; for Sensitivity, Alginate barrier / Sensitivity, Both barriers / Sensitivity, Mucin barrier: NPs 50 mg/mL; for Biofilm inhibition (number), Alginate barrier / Biofilm inhibition (number), Both barriers / Biofilm inhibition (number), Mucin barrier: NPs alginate capped 50 mg/mL", "text": "Disk diffusion method. The disk diffusion method is one of the most popular approaches to bacterial sensitivity testing due to its low cost and efficiency. The disk, impregnated with a candidate antibiotic drug or compound of interest, is placed on the inoculated agar; which contains a uniform layer of bacteria taken from liquid culture. The disks are commercially available, containing the proper concentrations of antibiotic drugs based on […]. As a low-cost alternative, disks may be prepared using filter paper soaked in the appropriate aqueous concentrations of the antibiotic drugs of interest. The underside of the plate is numbered for each sample to be tested. The cultures are distributed evenly onto a sterile agar plate using a sterile cotton swab to form a uniform layer on the agar. The disks, impregnated with NPs, drug, or NP-drug conjugates are then placed on top of the agar. The cultures are allowed to grow in the previous conditions overnight (16-18 hours). For these experiments, an vitro biofilm model was that would mimic the infection in CF in which there is an alginate and mucin barrier to drug diffusion."}, "[1]": {"details": "after magnetic treatment at 24 hours"}}, "note": "Structures can show the parent of a compound that is named as a salt."}
{"compound": "O=C(O)c1cn(C2CC2)c2cc(N3CCNCC3)c(F)cc2c1=O", "note": "[Cipro, Ciprofloxacin hydrochloride]", "values": [{"measurement": "MIC80 of P. aeruginosa biofilms", "setting": "P. aeruginosa biofilms", "result": 1, "unit": "µg/mL"}]}
{"compound": "NC[C@H]1O[C@H](O[C@H]2[C@H](O)[C@@H](O[C@H]3O[C@H](CO)[C@@H](O)[C@H](N)[C@H]3O)[C@H](N)C[C@@H]2N)[C@H](N)C[C@@H]1O", "note": "[Tobramycin, tobramycin]", "values": [{"measurement": "MIC", "setting": "P. aeruginosa; biofilm cells", "result": 50, "unit": "µg/mL"}, {"measurement": "MIC", "setting": "P. aeruginosa; planktonic cells", "result": 15, "unit": "µg/mL"}, {"measurement": "Sensitivity, Alginate barrier", "setting": "P. aeruginosa biofilm; [1]", "result": "S"}, {"measurement": "Sensitivity, Both barriers", "setting": "P. aeruginosa biofilm; [1]", "result": "S"}, {"measurement": "Sensitivity, Mucin barrier", "setting": "P. aeruginosa biofilm; [1]", "result": "S"}, {"measurement": "Biofilm inhibition (number), Alginate barrier", "setting": "P. aeruginosa biofilm; [1]", "result": 30}, {"measurement": "Biofilm inhibition (number), Both barriers", "setting": "P. aeruginosa biofilm; [1]", "result": 20}, {"measurement": "Biofilm inhibition (number), Mucin barrier", "setting": "P. aeruginosa biofilm; [1]", "result": 32}, {"measurement": "Sensitivity, Alginate barrier", "setting": "P. aeruginosa biofilm; no magnetic treatment", "result": "S"}, {"measurement": "Sensitivity, Both barriers", "setting": "P. aeruginosa biofilm; no magnetic treatment", "result": "S"}, {"measurement": "Sensitivity, Mucin barrier", "setting": "P. aeruginosa biofilm; no magnetic treatment", "result": "S"}, {"measurement": "Biofilm inhibition (number), Alginate barrier", "setting": "P. aeruginosa biofilm; no magnetic treatment", "result": 40}, {"measurement": "Biofilm inhibition (number), Both barriers", "setting": "P. aeruginosa biofilm; no magnetic treatment", "result": 40}, {"measurement": "Biofilm inhibition (number), Mucin barrier", "setting": "P. aeruginosa biofilm; no magnetic treatment", "result": 30}]}
